Assay results from patent publication US20260101895A1, “[…] AND COMPOSITION” (Innospec Limited, priority 2022, published 2026).

Legend:
[1] = initial solubility; 2 g complex in 100 ml deionised water, room temperature, 20 minutes, filtered 0.45 μm
Text: By the term “copper bioavailability” we mean the amount of copper that is released upon contact with water, i.e. so as to provide free copper ions for consumption by fungi. Copper bioavailability values may be measured using any suitable method, including the method as set out in the Examples. The copper bioavailability may be determined by measuring the content of copper in a sample (for example using a colorimetric test that compares to copper nitrate solutions of known concentrations) and converting the copper content to an amount of bioavailable copper (in ppm) using the formula: […]
The copper content is converted to bioavailable copper using the formula:
A solution of each copper amino carboxylic acid complex was prepared by dissolving 2 g of the copper complex in 100 ml deionised water and stirring at room temperature for 20 minutes. A sample of this solution was then withdrawn and filtered through a 0.45 μm syringe.
The filtered copper liquid was diluted with 1% nitric acid to yield a solution containing an approximate maximum of 1 mg/L Cu2+. The total copper content was then determined using a Perkin Elmer NexION 350D and converted to bioavailable copper using the formula above.

[2] = Repeated solubility: copper bioavailability over repeated wettings (colorimetric); settings: for Bioavailable copper Step 1 / Bioavailable copper Step 2 / Bioavailable copper Step 3 / Bioavailable copper Step 4 / Bioavailable copper Step 5: repeated solubility; for Bioavailable copper Step 1: 1 g complex in 50 ml deionised water, centrifuged, filtered, colorimetric 635 nm; for Bioavailable copper Step 2 / Bioavailable copper Step 3 / Bioavailable copper Step 4 / Bioavailable copper Step 5: undissolved material in 50 ml fresh deionised water
Method: The colorimetric absorbance at 635 nm using a Hach Lange DR3900 Spectrophotometer of copper nitrate solutions of known concentrations gives a linear relationship where:
Absorbance is relative to a standard solution of 9.9 ml deionised water, 0.1 ml 68 to 70% nitric acid
The copper content is converted to bioavailable copper using the formula: […]
To determine the copper content of each of the copper amino carboxylic acid complexes, 9.9 ml of filtered copper containing solution and 0.1 mL of 68 to 70% nitric acid was added to a spectrometer vial to completely react all of the copper complex to copper nitrate.
The absorbance at 635 nm (pre-zeroed with solution of 9.9 mL deionised water and 0.1 mL nitric acid) was recorded.
1 g of each copper amino carboxylic acid complex was added to 50 ml deionised water in a 50 ml centrifuge tube and stirred. The resulting mixture was centrifuged at 4000 rpm for 30 minutes, a sample of this was withdrawn and filtered through a 0.45 μm syringe. The copper content was determined using the above colorimetric method.
The remaining liquid in the centrifuge tube was poured away leaving only some undissolved material. 50 ml of fresh deionised water was added to the centrifuge tube containing undissolved material. The stirring and centrifugation process was repeated until no undissolved material remained.
These measurements indicate the bioavailability of the copper over repeated wettings in use.

Compound: O=C([O-])CNCC(=O)[O-].[Cu+2] [Copper iminodiacetate]
- Bioavailable Cu by ICP-MS [1]: 33000 ppm
- Bioavailable copper Step 1 [2]: 27750 ppm
- Bioavailable copper Step 2 [2]: 27750 ppm
- Bioavailable copper Step 3 [2]: 27750 ppm
- Bioavailable copper Step 4 [2]: 27750 ppm
- Bioavailable copper Step 5 [2]: 27125 ppm
- Bioavailability over repeated wettings/steps (in words) ([2]; summary of Table 2): good bioavailability for 3 or more wettings/steps

Compound: Copper 2-aminooctanoate
- Bioavailable Cu by ICP-MS [1]: 150 ppm

Compound: Copper 12-aminododecanoate
- Bioavailable Cu by ICP-MS [1]: 9200 ppm

Compound: Copper L-asparaginate
- Bioavailable Cu by ICP-MS [1]: 7125 ppm

Compound: Copper isoleucinate
- Bioavailable Cu by ICP-MS [1]: 13050 ppm

Compound: Copper lysinate
- Bioavailable Cu by ICP-MS [1]: 106950 ppm
- Bioavailable copper Step 1 [2]: 79000 ppm
- Bioavailable copper Step 2 [2]: 24000 ppm
- Bioavailable copper Step 3 [2]: 8375 ppm
- Bioavailable copper Step 4 [2]: 4000 ppm
- Bioavailable copper Step 5 [2]: 0 ppm

Compound: Copper phenylalaninate
- Bioavailable Cu by ICP-MS [1]: 5250 ppm

Compound: Copper sarcosinate
- Bioavailable Cu by ICP-MS [1]: 278000 ppm
